Assay results taken from patent US20220323391A1, “COMBINATION OF A CHEMOTHERAPEUTIC AGENT AND ALPHA-LACTOGLUBULIN-OLEIC ACID COMPLEX FOR CANCER THERAPY” (HAMLET PHARMA AB, priority 2019, published 2022).
“Also recorded” adds a separate entry of the source.

Tested on: MB49 mouse bladder carcinoma cells
Assay: murine MB49 bladder cancer model, intravesical treatment
Format: in vivo
Conditions: for Tumor growth / tumor progression (bladder weight, bladder size, tumor size) compared to sham treated mice: chemotherapeutic agent alone, 25 μg intravesical, days 3, 5, 7, 9 and 11; for Tumor growth / tumor recurrence at long-term follow up: single agent (alpha1-oleate 1.7 mM, or MMC or Epirubicin 25 μg), after 4 weeks
Method: MB49 (RRID:CVCL_7076) cells were provided by Sara Mangsbo, Uppsala University, Sweden. […] C57BL/6 female mice were bred at the Department of Laboratory Medicine, Lund University and used at ages from 7 to 12 weeks. […] On day 0, the bladder was emptied and preconditioned by intravesical instillation of 100 μl of poly-L-lysine solution (0.1 mg/ml) through a soft polyethylene catheter (Clay Adams) with an outer diameter of 0.61 mm. After 30 minutes, MB49 mouse bladder carcinoma cells (2×10^5 cells in 50 μl media) were instilled. On days 3, 5, 7, 9 and 11, mice were randomly assigned and instilled to the alpha1-oleate (1.7 mM or 8.5 mM), chemotherapeutic drugs (MMC 25 μg, epirubicin 25 μg), combination of alpha1-oleate with chemotherapeutic agent or sham PBS treatment group. The catheter was left in place for about one minute, but as the mice remained under anesthesia, the time to voiding (dwelling time) of the substance was 2-3 hours. Groups of 5-6 mice for each treatment and control were sacrificed at day 12. Follow up groups of 5-8 mice were sacrificed at week 4 and week 8. Bladders were imaged and processed for histology or RNA extraction. Two independent experiments were performed for each condition. All experiments were performed with mycoplasma-free cells.
Bladders were embedded in O.C.T. compound (VWR), and successive 5 μm sections were collected from the center of each bladder and placed on positively-charged microscope slides (Superfrost/Plus; Thermo Fisher Scientific). […] Images was captured using the AX10 microscope (Carl Zeiss). The tumor circumferences were measured for analysis of the tumor area using ImageJ software.
The effects of alpha1-oleate and Mitomycin C were investigated in the murine MB49 bladder cancer model (for study design see FIG. 19A). Bladder cancer was established by intra-vesical instillation of MB49 cells and treatment was initiated on day 3. The treatment group received alpha1-oleate (1.7 mM or 8.5 mM), MMC (0.1 mL, 25 ug/dose) or a combination of alpha1-oleate (1.7 mM or 8.5 mM) with MMC (0.1 mL, 25 ug/dose). Instillations were performed on days 3, 5, 7, 9 and 11 and sham treated mice received PBS. Bladders were harvested at sacrifice on day 12 and tumor development was quantified as bladder weight, bladder size, tumor size and pathology score (FIG. 21c-f).

| SMILES | Therapeutic effect of Epirubicin alone relative to alpha1-oleate (Epirubicin 25 μg vs alpha1-oleate 1.7 mM, day 12, p=0.97) | Tumor growth / tumor progression (bladder weight, bladder size, tumor size) compared to sham treated mice (day 12) | Tumor growth / tumor recurrence at long-term follow up | Tumor growth / tumor progression (bladder weight, bladder size, tumor size) compared to sham treated mice (day 12, listed as MMC) | Tumor growth / tumor progression (bladder weight, bladder size, tumor size) compared to sham treated mice (day 12, listed as mitomycin) | Tumor growth / tumor recurrence at long-term follow up (listed as MMC) |
| --- | --- | --- | --- | --- | --- | --- |
| COc1cccc2c1C(=O)c1c(O)c3c(c(O)c1C2=O)C[C@@](O)(C(=O)CO)C[C@@H]3O[C@H]1C[C@H](N)[C@@H](O)[C@H](C)O1 [Epirubicin] | comparable to that of alpha1-oleate | Tumor progression was delayed; also recorded: reduction in tumor size | Evidence of tumor recurrence; also recorded: showed an increase in tumor growth | – | – | – |
| CO[C@@]12[C@H](COC(N)=O)C3=C(C(=O)C(C)=C(N)C3=O)N1C[C@@H]1N[C@@H]12 [Mitomycin C] | – | Tumor progression was delayed | – | reduction in tumor size | attenuated to a similar extent | Evidence of tumor recurrence; also recorded: showed an increase in tumor growth |
